logP data for 48 molecules are collected here from ChEMBL document CHEMBL3046696, “QSAR analysis of caffeoyl naphthalene sulfonamide derivatives as HIV-1 integrase inhibitors” (Med Chem Res, 2006).

A short description of this series: physchem. The settings on record: octanol/water.
Description: Octanol-water partition coefficient, log P of the compound
As for `CC(=O)Oc1ccc(/C=C/C(=O)Nc2cccc3c(S(=O)(=O)Nc4ccccc4C)cccc23)cc1OC(C)=O`, the logP was 4.18.
Take `O=C(/C=C/c1ccc(O)c(O)c1)Nc1cccc2c(S(=O)(=O)Nc3ccc(Cl)cc3)cccc12`: the logP was 3.71.
Regarding `O=C(/C=C/c1ccc(O)c(O)c1)Nc1cccc2c(S(=O)(=O)Nc3ccc(Br)cc3)cccc12`, the logP was found to be 4.14.
In the case of `Cc1ccc(NS(=O)(=O)c2cccc3c(NC(=O)/C=C/c4ccc(O)c(O)c4)cccc23)cc1`, the lipophilicity (logP) came out at 4.13.
For `O=C(/C=C/c1ccc(O)c(O)c1)Nc1cccc2c(S(=O)(=O)Nc3cccc([N+](=O)[O-])c3)cccc12` the value was 4.57.
As for `Cc1ccccc1NS(=O)(=O)c1cccc2c(NC(=O)/C=C/c3ccc(O)c(O)c3)cccc12`, the logP is 4.6.
As to `Cc1cccc(NS(=O)(=O)c2cccc3c(NC(=O)/C=C/c4ccc(O)c(O)c4)cccc23)c1C`, the logP stood at 5.03.
With `CC(=O)Oc1ccc(/C=C/C(=O)Nc2cccc3c(S(=O)(=O)Nc4cccc(C(C)C)c4)cccc23)cc1OC(C)=O`, the logP is 4.86.
`CC(=O)Oc1ccc(/C=C/C(=O)Nc2cccc3c(S(=O)(=O)Nc4ccc(C(C)C)cc4)cccc23)cc1OC(C)=O` showed a logP of 4.86.
For `CCCCc1cc(NC(=O)/C=C/c2ccc(OC(C)=O)c(OC(C)=O)c2)c2cccc(S(=O)(=O)Nc3ccccc3)c2c1` the value was 5.32; for `CCCCN(c1ccc(F)cc1)S(=O)(=O)c1cccc2c(NC(=O)/C=C/c3ccc(OC(C)=O)c(OC(C)=O)c3)cccc12`, 5.12; for `CC(=O)Oc1ccc(/C=C/C(=O)Nc2cccc3c(S(=O)(=O)Nc4ccc(C(F)(F)F)cc4)cccc23)cc1OC(C)=O`, 4.55.
`CC(=O)Oc1ccc(/C=C/C(=O)Nc2cccc3c(S(=O)(=O)Nc4ccccc4C(F)(F)F)cccc23)cc1OC(C)=O` returned a logP of 4.55.
For `CC(=O)Oc1ccc(/C=C/C(=O)N(c2cccc3c(S(=O)(=O)Nc4ccccc4)cccc23)C(F)(F)F)cc1OC(C)=O`, the logP was determined as 5.66.
`CCc1ccc(N(C(=O)/C=C/c2ccc(OC(C)=O)c(OC(C)=O)c2)c2cc(C(F)(F)F)cc3c(S(=O)(=O)Nc4ccc(S(=O)(=O)CC)cc4)cccc23)cc1` gave a logP of 7.34.
With `CC(=O)Oc1ccc(/C=C/C(=O)N(c2cccc3c(S(=O)(=O)Nc4cccc(C(F)(F)F)c4)cccc23)C(F)(F)F)cc1OC(C)=O` the figure was 6.54; with `CC(=O)Oc1ccc(/C=C/C(=O)N(c2cccc3c(S(=O)(=O)Nc4ccc(C(F)(F)F)cc4)cccc23)C(F)(F)F)cc1OC(C)=O`, 6.54; with `CC(=O)Oc1ccc(/C=C/C(=O)Nc2cccc3c(S(=O)(=O)Nc4ccc(SC(F)(F)F)cc4)cccc23)cc1OC(C)=O`, 5.5.
Molecule `CC(=O)Oc1ccc(/C=C/C(=O)Nc2cccc3c(S(=O)(=O)Nc4ccc(S(=O)(=O)C(F)(F)F)cc4)cccc23)cc1OC(C)=O` returned a lipophilicity (logP) of 4.55.
In the case of `CC(=O)Oc1ccc(/C=C/C(=O)N(SC(F)(F)F)c2cccc3c(S(=O)(=O)Nc4ccc(S(=O)(=O)C(F)(F)F)cc4)cccc23)cc1OC(C)=O`, the logP worked out at 7.16.
In turn, `CC(=O)Oc1ccc(/C=C/C(=O)N(c2cccc3c(S(=O)(=O)Nc4ccc(SC(F)(F)F)cc4)cccc23)S(=O)(=O)C(F)(F)F)cc1OC(C)=O` displayed a logP of 7.16.
With `CCS(=O)(=O)c1ccc(NS(=O)(=O)c2cccc3c(N(C(=O)/C=C/c4ccc(OC(C)=O)c(OC(C)=O)c4)S(=O)(=O)C(F)(F)F)cccc23)cc1`, the logP is 4.81.
Regarding `CCS(=O)(=O)c1ccc(NS(=O)(=O)c2cccc3c(NC(=O)/C=C/c4ccc(OC(C)=O)c(OC(C)=O)c4)cccc23)cc1`, the logP was found to be 3.15.
For `CCS(=O)(=O)c1cc(NC(=O)/C=C/c2ccc(OC(C)=O)c(OC(C)=O)c2)c2cccc(S(=O)(=O)Nc3ccccc3)c2c1` the value was 3.15; for `CCS(=O)(=O)N(C(=O)/C=C/c1ccc(OC(C)=O)c(OC(C)=O)c1)c1cccc2c(S(=O)(=O)Nc3ccccc3)cccc12`, 3.92.
`CC(=O)Oc1ccc(/C=C/C(=O)N(c2cccc3c(S(=O)(=O)Nc4ccc(S(=O)(=O)C(F)(F)F)cc4)cccc23)C(F)(F)F)cc1OC(C)=O`: the logP was found to be 6.03.
In the case of `CC(=O)Oc1ccc(/C=C/C(=O)Nc2cccc3c(S(=O)(=O)Nc4ccccc4)cccc23)cc1OC(C)=O`, the logP is 3.66.
Consider `CC(=O)Oc1ccc(/C=C/C(=O)Nc2cccc3c(S(=O)(=O)NCc4ccccc4)cccc23)cc1OC(C)=O`, for which the logP turned out to be 4.1.
Consider `CC(=O)Oc1ccc(/C=C/C(=O)Nc2cccc3c(S(=O)(=O)NCCc4ccccc4)cccc23)cc1OC(C)=O`, for which the logP was 3.76.
For the molecule `CC(=O)Oc1ccc(/C=C/C(=O)Nc2cccc3c(S(=O)(=O)Nc4ccc(F)cc4)cccc23)cc1OC(C)=O`, the logP turned out to be 4.19.
In turn, `CC(=O)Oc1ccc(/C=C/C(=O)Nc2cccc3c(S(=O)(=O)Nc4ccc(Cl)cc4)cccc23)cc1OC(C)=O` showed a logP of 4.01.
For `CC(=O)Oc1ccc(/C=C/C(=O)Nc2cccc3c(S(=O)(=O)Nc4ccc(Br)cc4)cccc23)cc1OC(C)=O` the value was 4.44; for `CC(=O)Oc1ccc(/C=C/C(=O)Nc2cccc3c(S(=O)(=O)Nc4ccc(C)cc4)cccc23)cc1OC(C)=O`, 3.8.
For `CC(=O)Oc1ccc(/C=C/C(=O)Nc2cccc3c(S(=O)(=O)Nc4cccc([N+](=O)[O-])c4)cccc23)cc1OC(C)=O` the value was 4.24; for `CC(=O)Oc1ccc(/C=C/C(=O)Nc2cccc3c(S(=O)(=O)Nc4cccc(C)c4C)cccc23)cc1OC(C)=O`, 4.62; for `O=C(/C=C/c1ccc(O)c(O)c1)Nc1cccc2c(S(=O)(=O)Nc3ccccc3)cccc12`, 4.46.
`O=C(/C=C/c1ccc(O)c(O)c1)Nc1cccc2c(S(=O)(=O)NCc3ccccc3)cccc12` displayed a logP of 4.89.
Turning to `O=C(/C=C/c1ccc(O)c(O)c1)Nc1cccc2c(S(=O)(=O)NCCc3ccccc3)cccc12`, the logP is 4.13.
Consider `O=C(/C=C/c1ccc(O)c(O)c1)Nc1cccc2c(S(=O)(=O)Nc3ccc(F)cc3)cccc12`, for which the log partition coefficient (logP) worked out at 4.57.
Take `CC(=O)Oc1ccc(/C=C/C(=O)N(c2ccccc2)c2cccc3c(S(=O)(=O)Nc4ccccc4)cccc23)cc1OC(C)=O`: the logP amounted to 5.59.
`CCN(c1ccccc1)S(=O)(=O)c1cccc2c(N(C(=O)/C=C/c3ccc(OC(C)=O)c(OC(C)=O)c3)c3ccccc3)cc(C)cc12` came in with a logP of 6.65.
On to `CCN(c1ccccc1)S(=O)(=O)c1cccc2c(N(C(=O)/C=C/c3ccc(OC(C)=O)c(OC(C)=O)c3)c3ccccc3)cccc12`, for which the logP came out at 6.18.
For `CCc1ccccc1NS(=O)(=O)c1cccc2c(NC(=O)/C=C/c3ccc(OC(C)=O)c(OC(C)=O)c3)cccc12` the value was 4.53.
For the molecule `CCc1cccc(NS(=O)(=O)c2cccc3c(NC(=O)/C=C/c4ccc(OC(C)=O)c(OC(C)=O)c4)cccc23)c1`, the logP amounted to 4.53.
The molecule `CCc1ccc(NS(=O)(=O)c2cccc3c(NC(=O)/C=C/c4ccc(OC(C)=O)c(OC(C)=O)c4)cccc23)cc1` yielded a logP of 4.53.
In the case of `CCCc1ccccc1NS(=O)(=O)c1cccc2c(NC(=O)/C=C/c3ccc(OC(C)=O)c(OC(C)=O)c3)cccc12`, the logP amounted to 4.92.
Consider `CCCc1cccc(NS(=O)(=O)c2cccc3c(NC(=O)/C=C/c4ccc(OC(C)=O)c(OC(C)=O)c4)cccc23)c1`, for which the lipophilicity (logP) was determined as 4.92.
For `CC(=O)Oc1ccc(/C=C/C(=O)Nc2cccc3c(S(=O)(=O)Nc4ccccc4C(C)C)cccc23)cc1OC(C)=O` the value was 4.86.
